Laboratory results as given in US9018388B2, “Pesticidal compositions and processes related thereto” (Dow AgroSciences LLC, priority 2012, dated 2015).

Assays:
[1] = system: Corn Earworm (CEW) (Helicoverpa zea); assay: Bioassay on corn earworm (CEW), 128-well diet tray assay; assay type: in vivo; settings: Helicoverpa zea; Corn earworm, 50 μg/cm^2; read-out: % Mortality CEW 50 μg/cm^2
Procedure: (§1) Bioassays on Beet Armyworm (“BAW”) and Corn Earworm (“CEW”)
(§2) Certain molecules disclosed in this document were tested against BAW and CEW using procedures described in the following examples. In the reporting of the results, the “BAW & CEW Rating Table” was used (See Table Section).
Bioassays on CEW (Helicoverpa zea)
Bioassays on CEW were conducted using a 128-well diet tray assay. One to five second instar CEW larvae were placed in each well (3 mL) of the diet tray that had been previously filled with 1 mL of artificial diet to which 50 μg/cm^2 of the test compound (dissolved in 50 μL of 90:10 acetone-water mixture) had been applied (to each of eight wells) and then allowed to dry. Trays were covered with a clear self-adhesive cover and held at 25° C., 14:10 light-dark for five to seven days. Percent mortality was recorded for the larvae in each well; activity in the eight wells was then averaged. The results are indicated in the table entitled “Table 5: Biological Results” (See Table Section).

[2] = system: Beet Armyworm (BAW) (Spodoptera exigua); assay: Bioassay on beet armyworm (BAW), 128-well diet tray assay; assay type: in vivo; settings: Spodoptera exigua; Beet armyworm, 50 μg/cm^2; read-out: % Mortality BAW 50 μg/cm^2
Procedure: as §1, §2
Bioassays on BAW (Spodoptera exigua)
Bioassays on BAW were conducted using a 128-well diet tray assay. One to five second instar BAW larvae were placed in each well (3 mL) of the diet tray that had been previously filled with 1 mL of artificial diet to which 50 μg/cm^2 of the test compound (dissolved in 50 μL of 90:10 acetone-water mixture) had been applied (to each of eight wells) and then allowed to dry. Trays were covered with a clear self-adhesive cover and held at 25° C., 14:10 light-dark for five to seven days. Percent mortality was recorded for the larvae in each well; activity in the eight wells was then averaged. The results are indicated in the table entitled “Table 5: Biological Results” (See Table Section).

| Compound | pest or weed control at 50 µg/cm2, 50 µg/cm2 [1] [%] | pest or weed control at 50 µg/cm2, 50 µg/cm2 [2] [%] |
| --- | --- | --- |
| CC(C)c1ccccc1N1CCCS/C1=N\N=C\c1ccc(-c2ncn(-c3ccc(C(F)(F)F)cc3)n2)cc1 [Compound 179C] | 50 to 100 | 50 to 100 |
| CCC(C)c1ccccc1N1C(=O)CCS/C1=N\N=C\c1ccc(-c2ncn(-c3ccc(OC(F)(F)F)cc3)n2)cc1 (stereo not shown) [Compound 230C] | 50 to 100 | 50 to 100 |
| O=C1CS/C(=N\N=C\c2ccc(-c3ncn(-c4ccc(OC(F)(F)F)cc4)n3)cc2)N1c1c(Br)cccc1Br [Compound 99C] | 50 to 100 | 50 to 100 |
| COc1cc(C)c(-n2c(C(=O)O)cs/c2=N\N=C\c2ccc(-c3ncn(-c4ccc(OC(F)(F)F)cc4)n3)cc2)c(C)c1 [Compound 80C] | 50 to 100 | 50 to 100 |
| CS/C(=N\c1ccc(N(C)C)cc1)N/N=C/c1ccc(-c2ncn(-c3ccc(OC(F)(F)F)cc3)n2)cc1 [Compound 1C, N-(4-dimethylaminophenyl)-S-methyl-2-{4-[1-(4-trifluoromethoxyphenyl)-1H-[1,2,4]-triazol-3-yl]-benzylidene}-hydrazine-carbothioamide] | 50 to 100 | 50 to 100 |
| CC1CCS/C(=N\N=C\c2ccc(-c3ncn(-c4ccc(OC(F)(F)F)cc4)n3)cc2)N1c1ccccc1C(C)(C)C (stereo not shown) [Compound 222C] | 50 to 100 | 50 to 100 |
| Cc1cccc(C)c1N1C(=O)CCS/C1=N\N=C\c1ccc(-c2ncn(-c3ccc(OC(F)(F)F)cc3)n2)cc1 [Compound 223C] | 50 to 100 | 50 to 100 |
| CC(C)c1cc(F)ccc1N1CS/C1=N\N=C\c1ccc(-c2ncn(-c3ccc(OC(F)(F)F)cc3)n2)cc1 [Compound 252C] | 50 to 100 | 50 to 100 |
| CC(C)c1ccc(F)cc1N1CS/C1=N\N=C\c1ccc(-c2ncn(-c3ccc(OC(F)(F)C(F)(F)F)cc3)n2)cc1 [Compound 256C] | 50 to 100 | 50 to 100 |
| CC(C)c1ccc(F)cc1N1CS/C1=N\N=C\c1ccc(-c2ncn(-c3ccc(C(F)(C(F)(F)F)C(F)(F)C(F)(F)F)cc3)n2)cc1 (stereo not shown) [Compound 258C] | 50 to 100 | 0 to 50 |
| CCC1CS/C(=N\N=C\c2ccc(-c3ncn(-c4ccc(OC(F)(F)F)cc4)n3)cc2)N1c1c(C)cccc1Cl (stereo not shown) [Compound 167C] | 50 to 100 | 50 to 100 |
| CC(C)Cc1ccccc1N1C(=O)CS/C1=N\N=C\c1ccc(-c2ncn(-c3ccc(OC(F)(F)F)cc3)n2)cc1 [Compound 119C] | 50 to 100 | 50 to 100 |
| COc1cc(C)c(-n2c(C)cs/c2=N\N=C\c2ccc(-c3ncn(-c4ccc(OC(F)(F)F)cc4)n3)cc2)c(C)c1 [Compound 172C] | 50 to 100 | 50 to 100 |
| CC1CSC(=NN=Cc2ccc(-c3ncn(-c4ccc(OC(F)(F)F)cc4)n3)cc2)N(c2ccccc2C(C)C)C1 (stereo in doubt) [Compound 178C, (Z)-3-(2-isopropylphenyl)-5-methyl-2-((E)-(4-(1-(4-(trifluoromethoxy)phenyl)-1H-1,2,4-triazol-3-yl)benzylidene)hydrazono)-1,3-thiazinane] | 50 to 100 | 50 to 100 |
| COc1cc(C)c(/N=C(/N/N=C/c2ccc(-c3ncn(-c4ccc(OC(F)(F)C(F)(F)F)cc4)n3)cc2)SCOC(=O)C(C)C)c(C)c1 [Compound 37C] | 50 to 100 | 50 to 100 |
| Cc1cccc(C)c1/N=C(/N/N=C/c1ccc(-c2ncn(-c3ccc(OC(F)(F)F)cc3)n2)cc1)SCc1ccc(F)cc1F [Compound 7C] | 50 to 100 |  |
| COc1ccc(N2C(=O)CS/C2=N\N=C\c2ccc(-c3ncn(-c4ccc(OC(F)(F)F)cc4)n3)cc2)cc1 [Compound 115C] |  | 0 to 50 |
| CCOc1cccc(OCC)c1N1C(=O)CS/C1=N\N=C\c1ccc(-c2ncn(-c3ccc(OC(F)(F)F)cc3)n2)cc1 [Compound 98C] |  | 50 to 100 |
| FC(F)(F)Oc1ccc(-n2cnc(-c3ccc(/C=N/N=C4\SCCN4c4ccccc4OC(F)(F)F)cc3)n2)cc1 [Compound 153C] | 50 to 100 |  |
